Reference: patent EP2511272B1, “Synthetic analogues of abscisic acid with anti-inflammatory and insulin release stimulation effects on human cells” (Universita' degli Studi di Genova, priority 2011, dated 2012)

What was measured:
ABA receptor = target: T1, ABA receptor (Homo sapiens, UniProt Q9NS86); test: Competition binding with [^3H]-ABA on human granulocytes
T1 construct: endogenous in cells; host or cells: human granulocytes (intact cells)
T1 sequence (Q9NS86 1-450): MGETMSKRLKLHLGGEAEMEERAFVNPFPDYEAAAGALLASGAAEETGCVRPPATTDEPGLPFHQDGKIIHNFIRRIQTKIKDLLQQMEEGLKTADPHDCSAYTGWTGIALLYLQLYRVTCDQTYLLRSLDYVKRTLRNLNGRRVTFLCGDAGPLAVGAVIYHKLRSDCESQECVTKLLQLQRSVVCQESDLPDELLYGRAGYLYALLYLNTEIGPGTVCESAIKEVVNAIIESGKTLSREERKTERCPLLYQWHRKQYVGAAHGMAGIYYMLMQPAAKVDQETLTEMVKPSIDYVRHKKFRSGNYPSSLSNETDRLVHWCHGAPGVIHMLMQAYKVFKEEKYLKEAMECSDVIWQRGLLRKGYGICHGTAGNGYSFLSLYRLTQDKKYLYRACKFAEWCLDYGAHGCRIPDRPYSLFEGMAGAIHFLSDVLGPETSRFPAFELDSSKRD
Procedure: Human granulocytes (7 x 10^6 per point), after ON incubation in complete DMEM/F12, were incubated in triplicate at 25 °C for 60 min in 100 µl of HBSS spiked with glucose 10 mM in the presence either of an excess of unlabeled ABA (1 mM) (in order to determine the non-specific binding rate) or of increasing concentrations of compound prepared according to example 1 (from 0,01 nM up to 100 µM). To each compound, 10 nM of [^3H]-ABA (GE Healthcare) with specific activity of 98,000 cpm/pmole were added. At the end of incubation, the cells were centrifuged for 30 sec at […], the supernatant was removed and discarded, and the pellet was washed once wih an excess of HBSS in ice, and centrifuged for 30 sec at 17,000xg. The pellet was resuspended in 200 µl of de-ionized water and radioactivity of cells was determined after addition of scintillation cocktail in a β counter.
Specific binding was computed as the difference between the total binding of [^3H]-ABA in the cells and the binding of [^3H]-ABA in the presence of an excess of unlabeled ABA (1 mM) (non-specific binding).
The experiment was carried out five times in triplicate.

[1] = Stability after extraction from human plasma (HPLC-MS); format: in vitro ADME; conditions: for Stability after extraction (amount found): Plasma, 10 µM
Procedure: Compound prepared according to example 1 was tested for stability at 10 µM concentration in deionized water, phosphate buffer (HBSS with calcium and magnesium) and human plasma for 0 and after 24 hrs at 37 °C, by carrying out the extraction as described in Materials and Methods, and subsequent HPLC-MS analysis for the analyte of interest.
For stability tests, to 2 ml of deionized water, HBSS or human plasma, the compound of example 1 (10 µM) and 5,000 cpm of [^3H]ABA were added, for the purpose of evaluating the recovery after the extraction procedure. The so prepared samples were exctracted at time 0 and after 24 hrs.
For the extraction, 8 ml was added of distilled methanol (methanol/water : 80/20 vol/vol) and the mixture was kept at -20 °C overnight.
The following day the samples were centrifuged at 800xg for 10 minutes and the supernatant was concentrated to dryness by Rotavapor. The reconstituted aqueous solution was acidified at pH 2.6 with 10 % trifluoroacetric acid (TFA) and was extracted three times with diethyl ether (diethyl ether/water: 1:1 vol/vol).
The ethereal phase was finally removed by Rotavapor and the extraxt was resuspended in 1 ml of HBSS; 8 µl of such solution was analysed by HPLC-MS, and 100 µl was used for radioactivity counting by a Packard β-counter in order to compute extraction recovery.
(§1) The HPLC-MS system used consists of an Agilent 1100 capillary chromatograph equipped with a diode array detector (DAD) and coupled with an Agilent 1100 series LC/MSD Trap mass spectometer with orthogonal electrospray source and a ionic-trap analyser.
(§2) The detection wavelength was 254 nm and the MS spectrum was recorded in negative ions mode in an m/z range of 50-300.
(§3) The amount of compound of example 1 in the extracts and supernatants was computed as the area of the peak under the extracted ion current m/z 279.3, normalized for the ionization efficiency of internal standard (hexadeuterated ABA) used for HPLC-MS analysis. Furthermore, the concentration was computed using the recovery rates obtained from the evaluation of counts per minute (cpm) of extracted [^3H]ABA.

[2] = Stability without extraction in H2O and HBSS (HPLC-MS); format: physicochemical; conditions: 10 µM, 37 °C
Procedure: (§4) Additionally, stability tests were carried out in water, in HBSS and in HBSS in the presence of human granulocytes at time 0, and after 1 and 2 hrs at 37 °C, and carrying out HPLC-MSS analysis without extracting the analyte of interest.
(§5) In order to test the compound prepared according to example 1 for stability in HBSS in the presence, or absence, of granulocytes, 1 x 10^8 cells were used in 2 ml of HBSS (with calcium and magnesium added) containing 10 µM of compound prepared according to example 1 at 37°C. Samples of 500 µl each were drawn at time 0, and after 1 and 2 hrs and the cells were separated by centrifugation at 200xg for 5 minutes; the supernatant was then recovered and directly analysed in HPLC-MS.
as §1, §2, §3

human granulocytes [3] = test: Stability without extraction in HBSS in the presence of human granulocytes (HPLC-MS); format: in vitro ADME; conditions: for Stability (without extraction): Granulocytes in HBSS, 10 µM, 37 °C
Procedure: as §4, §5, §1, §2, §3

human granulocytes [4] = test: Cytotoxicity, CellTiter 96 AQueous One Solution assay; format: cell-based; conditions: 24 hrs
[5] = system: Raw 264.7 (murine monocitic leukemia); test: as above; format: cell-based; conditions: 24 hrs
granulocytes = test: Inhibition of ABA-induced chemotaxis (granulocyte migration, ChemoTx); format: cell-based, human

SMILES: CC(=C/C(=O)O)/C=C/C1(O)C(C)(C)CC(=O)C2OC21C (stereo not drawn) [Example 1, 2'α,3'α-dihydro-2'α,3'α-epoxyabscisic acid]
- Ki (ABA receptor; Cheng-Prusoff, [ABA] =10 nM, KD ABA = 11 nM, 95% confidence intervals 0.25 nM to 0.83 nM, read-out: inhibition constant Ki): 0.46 nM
- IC50 (ABA receptor; displaces 50 % of radioligand specific binding, 95 % confidence intervals 0.48 nM to 1.58 nM): 0.87 nM
- Stability after extraction (amount found) ([1]; 0 hr, equals extraction yield, listed as compound of example 1): 56%
- Stability after extraction (amount found) ([1]; 0 hr, equals extraction yield, listed as compound prepared according to example 1): 56%
- Stability after extraction (amount found) ([1]; 24 hrs at 37 °C): 49%
- degradation ([1]; in plasma, 0 vs 24 hrs): 7%
- Stability (without extraction) ([2]; H2O, 0 hr): 100%
- Stability (without extraction) ([2]; H2O, 1 h): 100%
- Stability (without extraction) ([2]; H2O, 2 hrs): 98%
- Stability (without extraction) ([2]; HBSS, 0 hr): 100%
- Stability (without extraction) ([2]; HBSS, 1 h): 100%
- Stability (without extraction) ([2]; HBSS, 2 hrs): 89%
- Stability (without extraction) (human granulocytes [3]; 0 hr): 94%
- Stability (without extraction) (human granulocytes [3]; 1 h): 82%
- Stability (without extraction) (human granulocytes [3]; 2 hrs): 73%
- degradation rate (human granulocytes [3]; phosphate buffer with human granulocytes, non-extracted samples): about 10 %/ hour
- number of cells (human granulocytes [4]; 1 nM): 151138
- vitality % (human granulocytes [4]; 1 nM): 89%
- number of cells (human granulocytes [4]; 10 nM): 191138
- vitality % (human granulocytes [4]; 10 nM): 100%
- number of cells (human granulocytes [4]; 1 µM): 132555
- vitality % (human granulocytes [4]; 1 µM): 83%
- number of cells (human granulocytes [4]; 100 µM): 175388
- vitality % (human granulocytes [4]; 100 µM): 96%
- number of cells ([5]; 1 nM): 306321
- vitality % ([5]; 1 nM): 100%
- number of cells ([5]; 10 nM): 30555
- vitality % ([5]; 10 nM): 100%
- number of cells ([5]; 1 µM): 274987
- vitality % ([5]; 1 µM): 90%
- number of cells ([5]; 100 µM): 290264
- vitality % ([5]; 100 µM): 95%
- CI±SD (chemotactic index) (granulocytes; ABA 1 µM + compound 10 nM): 1.26±0.07
- inhibition at 0.01 µM (granulocytes; Homo sapiens, migration towards ABA 1 µM, compound 10 nM): 57%
